Laboratory results reported in ChEMBL document CHEMBL3885861, “Open TG-GATES”.

Organism: Rattus norvegicus
Assay: Open TG-GATES - Regimen: Single
Type: toxicity, organism-based, Sprague-Dawley
Set-up: regimen Single, gender Male, age 6 weeks
Conditions: in vivo, po, 20 mg/kg, route gavage, dose level Middle; for APTT / Bas / Eos / Fbg / Hb / Ht / Lym / MCH / MCHC / MCV / Mono / Neu / PT / Plat / RBC / Ret / WBC: tissue Blood; for LIVER: tissue Liver; for A/G / ALP / ALT / AST / BUN / CRE / Ca / Cl / DBIL / GLC / IP / K / LDH / Na / PL / RALB / TBIL / TC / TG / TP / gamma-GTP: tissue Plasma

O=[N+]([O-])c1ccc(O)c([N+](=O)[O-])c1 [2,4-DINITROPHENOL]
TERMINAL_BW (3 h): 203.6 g
APTT (3 h): 16.6 s
Bas (3 h): 0%
Eos (3 h): 1%
Fbg (3 h): 246.4 mg/dL
Hb (3 h): 12.6 g/dL
Ht (3 h): 37.5%
Lym (3 h): 75%
MCH (3 h): 22 pg
MCHC (3 h): 33.5%
MCV (3 h): 65.6 fL
Mono (3 h): 11.8%
Neu (3 h): 12.4%
PT (3 h): 11.8 s
Plat (3 h): 115.4 x10_4/uL
RBC (3 h): 572.2 x10_4/ul
Ret (3 h): 10.2%
WBC (3 h): 93.4 x10_2/uL
LIVER (3 h): 9.5 g
A/G (3 h): 2.3
ALP (3 h): 1342.4 IU/L
ALT (3 h): 37.8 IU/L
AST (3 h): 62.6 IU/L
BUN (3 h): 12.8 mg/dL
CRE (3 h): 0.4 mg/dL
Ca (3 h): 11.9 mg/dL
Cl (3 h): 104 meq/L
DBIL (3 h): 0.012 mg/dL
GLC (3 h): 218.2 mg/dL
IP (3 h): 10.9 mg/dL
K (3 h): 4.2 meq/L
LDH (3 h): 125.2 IU/L
Na (3 h): 138.4 meq/L
PL (3 h): 143 mg/dL
RALB (3 h): 3.8 g/dL
TBIL (3 h): 0.036 mg/dL
TC (3 h): 85.4 mg/dL
TG (3 h): 68.6 mg/dL
TP (3 h): 5.5 g/dL
gamma-GTP (3 h): 0 IU/L
TERMINAL_BW (6 h): 200.1 g
APTT (6 h): 16 s
Bas (6 h): 0%
Eos (6 h): 1.2%
Fbg (6 h): 235 mg/dL
Hb (6 h): 13.1 g/dL
Ht (6 h): 39.1%
Lym (6 h): 71.4%
MCH (6 h): 22 pg
MCHC (6 h): 33.6%
MCV (6 h): 65.5 fL
Mono (6 h): 10.2%
Neu (6 h): 17.2%
PT (6 h): 12 s
Plat (6 h): 124 x10_4/uL
RBC (6 h): 596.4 x10_4/ul
Ret (6 h): 8.9%
WBC (6 h): 111 x10_2/uL
LIVER (6 h): 8.2 g
A/G (6 h): 2.6
ALP (6 h): 1422.2 IU/L
ALT (6 h): 36.4 IU/L
AST (6 h): 78.6 IU/L
BUN (6 h): 12.2 mg/dL
CRE (6 h): 0.4 mg/dL
Ca (6 h): 11 mg/dL
Cl (6 h): 105.8 meq/L
DBIL (6 h): 0.02 mg/dL
GLC (6 h): 204.6 mg/dL
IP (6 h): 10.9 mg/dL
K (6 h): 4.5 meq/L
LDH (6 h): 129.2 IU/L
Na (6 h): 139.2 meq/L
PL (6 h): 141.2 mg/dL
RALB (6 h): 3.9 g/dL
TBIL (6 h): 0.044 mg/dL
TC (6 h): 85.6 mg/dL
TG (6 h): 46.4 mg/dL
TP (6 h): 5.4 g/dL
gamma-GTP (6 h): 0 IU/L
TERMINAL_BW (9 h): 203.1 g
APTT (9 h): 16.2 s
Bas (9 h): 0%
Eos (9 h): 0.8%
Fbg (9 h): 255.5 mg/dL
Hb (9 h): 12.9 g/dL
Ht (9 h): 38.4%
Lym (9 h): 77.2%
MCH (9 h): 22.1 pg
MCHC (9 h): 33.8%
MCV (9 h): 65.4 fL
Mono (9 h): 4.8%
Neu (9 h): 17.2%
PT (9 h): 12 s
Plat (9 h): 132.8 x10_4/uL
RBC (9 h): 587.2 x10_4/ul
Ret (9 h): 10.4%
WBC (9 h): 104.5 x10_2/uL
LIVER (9 h): 8.5 g
A/G (9 h): 2.4
ALP (9 h): 1370.8 IU/L
ALT (9 h): 34 IU/L
AST (9 h): 64.5 IU/L
BUN (9 h): 10.5 mg/dL
CRE (9 h): 0.4 mg/dL
Ca (9 h): 11.3 mg/dL
Cl (9 h): 104.5 meq/L
DBIL (9 h): 0.02 mg/dL
GLC (9 h): 198.5 mg/dL
IP (9 h): 11.2 mg/dL
K (9 h): 4.7 meq/L
LDH (9 h): 158 IU/L
Na (9 h): 139 meq/L
PL (9 h): 153.8 mg/dL
RALB (9 h): 3.9 g/dL
TBIL (9 h): 0.045 mg/dL
TC (9 h): 83.5 mg/dL
TG (9 h): 70.2 mg/dL
TP (9 h): 5.6 g/dL
gamma-GTP (9 h): 0 IU/L
TERMINAL_BW (24 h): 216.8 g
APTT (24 h): 15.6 s
Bas (24 h): 0%
Eos (24 h): 1.2%
Fbg (24 h): 234.2 mg/dL
Hb (24 h): 12.9 g/dL
Ht (24 h): 38.4%
Lym (24 h): 70.4%
MCH (24 h): 21.6 pg
MCHC (24 h): 33.7%
MCV (24 h): 64.2 fL
Mono (24 h): 11.6%
Neu (24 h): 16.8%
PT (24 h): 11.7 s
Plat (24 h): 125.6 x10_4/uL
RBC (24 h): 597.8 x10_4/ul
Ret (24 h): 9%
WBC (24 h): 122.2 x10_2/uL
LIVER (24 h): 11.1 g
A/G (24 h): 2.4
ALP (24 h): 1483.4 IU/L
ALT (24 h): 43.2 IU/L
AST (24 h): 67.2 IU/L
BUN (24 h): 16 mg/dL
CRE (24 h): 0.4 mg/dL
Ca (24 h): 11.3 mg/dL
Cl (24 h): 103.2 meq/L
DBIL (24 h): 0.01 mg/dL
GLC (24 h): 182.2 mg/dL
IP (24 h): 7.2 mg/dL
K (24 h): 4.6 meq/L
LDH (24 h): 101.4 IU/L
Na (24 h): 139 meq/L
PL (24 h): 163.8 mg/dL
RALB (24 h): 3.9 g/dL
TBIL (24 h): 0.032 mg/dL
TC (24 h): 90 mg/dL
TG (24 h): 131.8 mg/dL
TP (24 h): 5.5 g/dL
gamma-GTP (24 h): 0.8 IU/L
